Test results: paper PMC7059627 (FASEB bioAdvances, 2020)

Columns and labels:
mitochondrial complex I [1] = target: T1, mitochondrial complex I (Bos taurus, UniProt P03887+P17694+P42026); test: NADH:decylubiquinone/DCPIP complex I kinetics in freeze-thawed mitochondria; assay type: biochemical
mitochondrial complex I [2] = target: T1, mitochondrial complex I; test: Michaelis-Menten kinetics with DCPIP reduction, NADH as electron donor; assay type: cell-based

T1 sequence (P42026 38-216): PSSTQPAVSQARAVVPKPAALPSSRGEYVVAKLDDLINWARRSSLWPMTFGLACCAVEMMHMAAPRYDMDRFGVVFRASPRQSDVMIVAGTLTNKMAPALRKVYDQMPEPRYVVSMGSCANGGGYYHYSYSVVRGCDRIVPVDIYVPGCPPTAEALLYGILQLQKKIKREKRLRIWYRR
T1 sequence (P03887 whole entry): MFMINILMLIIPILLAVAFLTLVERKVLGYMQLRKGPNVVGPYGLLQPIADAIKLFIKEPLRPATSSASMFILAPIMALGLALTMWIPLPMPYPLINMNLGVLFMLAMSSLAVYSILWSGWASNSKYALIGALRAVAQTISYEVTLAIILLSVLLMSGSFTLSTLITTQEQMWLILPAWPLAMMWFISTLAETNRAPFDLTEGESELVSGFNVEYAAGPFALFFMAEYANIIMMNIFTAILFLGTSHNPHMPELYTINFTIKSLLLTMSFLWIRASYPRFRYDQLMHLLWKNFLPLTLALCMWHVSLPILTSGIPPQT
T1 sequence (P17694 34-463): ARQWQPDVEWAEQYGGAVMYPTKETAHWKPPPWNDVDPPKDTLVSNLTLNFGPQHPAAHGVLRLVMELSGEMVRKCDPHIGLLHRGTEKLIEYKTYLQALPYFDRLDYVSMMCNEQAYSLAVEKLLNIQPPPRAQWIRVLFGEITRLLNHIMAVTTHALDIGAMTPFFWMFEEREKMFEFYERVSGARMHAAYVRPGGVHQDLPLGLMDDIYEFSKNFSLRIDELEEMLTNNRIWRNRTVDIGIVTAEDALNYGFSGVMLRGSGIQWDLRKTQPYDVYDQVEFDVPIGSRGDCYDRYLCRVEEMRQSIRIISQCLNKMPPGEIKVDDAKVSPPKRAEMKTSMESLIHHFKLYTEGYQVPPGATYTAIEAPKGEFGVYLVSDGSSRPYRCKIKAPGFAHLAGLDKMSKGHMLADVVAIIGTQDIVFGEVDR

SMILES | Ki (mitochondrial complex I [1]) [nM] | Michaelis-Menten kinetics with DCPIP reduction, NADH as electron donor (mitochondrial complex I [2])
CCCCCCCc1[nH]c2ccccc2c(=O)c1O [PQS, 2‐heptyl‐3‐hydroxy‐4(1H)‐quinolone] | 560 | 
CCCCCCCCCCC1=C(C)C(=O)C(OC)=C(OC)C1=O [decylubiquinone] |  | Kinetics with the substrate analog decylubiquinone at different PQS concentrations were measured
